The record followed here is patent US20100048657A1, “CONTROL OF MALIGNANT CELLS PROLIFERATION THROUGH THE INHIBITION OF CASEIN KINASE 2” (CLEVELAND STATE UNIVERSITY, priority 2006, published 2010).

What all share (type): cell-based, human
Experiment [1] concerns αIIbβ3 integrin expression on MEG-01 cells. The experiment in a line: RPE-CD41a flow cytometric immunophenotyping (maturation). From the text:
CD41a is the antigen for αIIbβ3 complex and it is found on platelets and platelet precursors, including MEG-1 cell line (Ogura et al., 1985; Zunino et al., 2001). It acts as a receptor for fibrinogen, von Willebrand factor, fibronectin, and vitronectin, and it mediates platelet adhesion and aggregation. αIIbβ3 complex is a marker of differentiation for megakaryocytes (as an increase in the fluorescence of stained cells corresponds to more αIIbβ3 receptor expression and differentiation towards platelets production) and it is simply a marker for the platelets. CD41a is conjugated with R-Phytocoerthrin (RPE), in order to be used in flow cytometry experiments. The staining protocol provided by BD Biosciences was followed. Briefly, cells were washed and resuspended in 1×PBS with 0.1% FBS, 0.01% NaN3, and 0.22 μm filtered buffer. Cells were counted and adjusted to be 10^6 cells/ml and 20 μl of RPE-CD41a was used for 180 μl cell suspension.
RPE conjugated stained cells were collected on FL2H channel and gating on populations was done on FSC and SSC logarithmic modes. […]
Regarding FIGS. 16-20, maturation (differentiation) of MEG-01 cells is described. […] Control untreated unstained—plot A, control untreated stained—plot B, 10 μM DMAT—plot C, 25 μM TBB—plot D, 1 nM PMA treatments—plot E. FIG. 18 represents total percentage relative fluorescence for RPE-CD41a immunophenotyping. […]

Experiment [2] concerns MEG-01 cells. The experiment in a line: Anchorage independence assay in soft agar. The following applies: 25 μM. The procedure: Anchorage independence of growth in soft agar assay is an assay for detecting malignant transformation of cells. Anchorage independence is given by defects in the cellular adhesion pathways. Anchorage independence is strongly connected with tumorogenicity and invasiveness. Malignant cells form colonies when grown on soft agar. Normal cells cannot grow on soft agar. Agarose (V3121 from Promega, with melting point at 87-89° C. and gelling point at 36-39° C.) was mixed with MEG-01 growth media RPMI1640 1× with 10% FBS and supplements. A bottom layer of 0.5% makes a firm base, then a top layer of 0.3% agarose with media and over the agarose a layer of growth media was added. Cells were grown in 12 wells dishes at 37° C., 5% CO2, 90% humidity in a VWR incubator. […] This modified image was then transformed into a default threshold image and then colonies were gated and measured.
Referring to FIGS. 2-4, anchorage independence assay in soft agar ([…] and 0.3% top layer agar, with complete MEG-01 cells, growth media) is illustrated. […] The area of each colony was measured using the software NIH Image version 1.63. First the background was subtracted from a gray binary image, then default threshold was applied and then colonies were measured by appropriate gating. 85 colonies from 30 images were measured. […]

Experiment [3] has as its system MEG-01 cells. The experiment in a line: DNA content assay with PI and RNAase A. The conditions noted are these: 10 μM, 4 days.
The subject of experiment [4] is fibrinogen receptor expression on MEG-01 cells. Kind of experiment: Fibrinogen-Alexa Fluor 488 binding to MEG-01 cells. The conditions noted are these: 10 μM. The procedure: RPE conjugated stained cells were collected on FL2H channel and gating on populations was done on FSC and SSC logarithmic modes. The unstained control signal was subtracted from the stained cells signal, in order to measure the staining of the cells without background noise. Similar staining was done for Fibrinogen-Alexa Fluor 488 (300 nM). Cells were collected on FL1H channel and gating on the interest population was done on FSC and SSC logarithmic modes. Again, the unstained control signal was subtracted from the stained cells signal, in order to measure the staining of the cells without background noise.
Regarding FIGS. 16-20, maturation (differentiation) of MEG-01 cells is described. In FIG. 16, RPECD41a (αIIbβ3 expression) staining for DMAT treated cells (gate MEG-01) is depicted, with control untreated unstained—plot A, Control untreated stained (RPE-CD41a)—plot B, DMAT 10 μM—plot D, DMAT 15 μM—plot C, DMAT 20 μM—plot E. For FIG. 17, RPECD41a (αIIbβ3 expression) staining for DMAT, TBB and PMA (gate MEG-01) is shown. Control untreated unstained—plot A, control untreated stained—plot B, 10 μM DMAT—plot C, 25 μM TBB—plot D, 1 nM PMA treatments—plot E. FIG. 18 represents total percentage relative fluorescence for RPE-CD41a immunophenotyping. […]

Turning to `CN(C)c1nc2c(Br)c(Br)c(Br)c(Br)c2[nH]1` [DMAT, 2-dimethylamino-4,5,6,7-tetrabromo-1H-benzimidazole], the “maturation level (RPE-CD41a, αIIbβ3 expression)” value in experiment [1] (10 μM) was “very significant maturation levels versus control untreated”; in experiment [1] (20 μM, compared with 10 μM), “slight increase in the maturation level”. Moreover, the “colony sizes versus Control untreated” value in the experiment with MEG-01 cells [2] (85 colonies from 30 images, paired t-test p<0.0001) is given as “extremely significant”. The “colony formation in soft agar” value in the experiment on MEG-01 cells [2] (observed after one week) is “do not form colonies at all”. The “ploidy (DNA content)” value in the experiment with MEG-01 cells [3] is on record as “higher than 2N”. Moreover, in experiment [4], the “fibrinogen-Alexa Fluor 488 binding to MEG-01 cells versus untreated controls” value is recorded as “bind significantly better fibrinogen-Alexa Fluor 488”.
